One sequence from publication PMC10998878, “Inhibition of acyl-CoA binding protein (ACBP) by means of a GABAARγ2-derived peptide” (Cell Death & Disease, 2024) can be followed below.

This experiment relates to GFP-LC3-expressing hepatocytes. The experiment is described as follows: Hepatocyte autophagy activation (GFP-LC3 dots). The settings on record: GFP-LC3 mouse hepatocytes, peptide 10 µg/mL, with leupeptin. In kind it is cell-based. As to the method:
[…] Leupeptin (100 μM) was added 4 h before fixation. Cells were stained with Hoechst 33342 solution (Thermo Scientific™, #62249, 1 µg/mL) and fixed with 4% paraformaldehyde (PFA) solution. Both blue (Hoechst-derived) and green (GFP-LC3-derived) fluorescence were imaged using a Zeiss LSM 710 confocal microscope. Images were analyzed using R software.
Hepatocytes were isolated from 4 transgenic mice expressing microtubule- associated proteins 1A/1B light chain 3B (hereafter referred to as LC3) fused to green fluorescent protein (GFP) (resulting fusion protein: LC3-GFP) under a ubiquitous promoter. Such oligo- or monocellular hepatocyte suspensions were cultured in the continuous presence of leupeptin at 37°C in the absence (A) or presence (B) of the GABAARγ2- EP- WT […]
Cells were counterstained with Hoechst
33342 and representative fluorescence images are shown (bar size: 10 µm). The number of LC3-GFP+ dots per cells (defined as an area of interest around the 1 or 2 Hoechst 33342- positive nuclei per cell) were determined by image analysis and plotted in C .
Results are shown as means ± standards of the mean, and statistics were calculated with […]

INMEYTIDIFFAQTWYDRRL [GABAARγ2-EP-WT]: the “capacity to enhance autophagic flux” value is on record as “enhance autophagic flux”. For the same sequence, the “number of LC3-GFP dots per cell” value (confocal microscopy) is reported as “increased the number of LC3-GFP dots”.
